Results published in patent US10363257B2 (ZENITH EPIGENETICS LTD., priority 2013, dated 2019).
Structures can show the parent of a compound that is named as a salt.

Columns and labels:
[1] = molecular target: T1, Brd4 bromodomain 1 (BRD4(1)) (Homo sapiens, UniProt O60885); assay: Inhibition of tetra-acetylated histone H4 binding to Brd4 bromodomain 1 (TR-FRET); details: tetra-acetylated histone H4 peptide, first bromodomain of Brd4
T1 construct: made in house; host or cells: E. coli BL21(DE3)
Outline: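 His-tagged BRD4(1) from E. coli (200 nM) with biotinylated tetra-acetylated H4 peptide (25-50 nM), Eu-cryptate streptavidin and XL665 anti-His, in HEPES pH 7.4/phosphate/KF buffer, 0.2% DMSO. After 2 h at room temperature, TR-FRET 665/620 nm ratio read; IC50 from dose-response curves.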

c-myc = assay: Inhibition of c-myc expression (mRNA, real-time PCR) in MV4-11 cells; format: cell-based; details: Human AML MV4-11 cells, 3 h, cMYC mRNA
Outline: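 MV4-11 cells treated 3 h at 37° C with increasing compound concentrations or 0.1% DMSO, in triplicate. cMYC mRNA quantified by one-step TaqMan real-time PCR, Ct normalized to internal control (Cyclophilin primers used), fold expression relative to control.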

human AML MV-4-11 cells = assay: Inhibition of cell proliferation in MV4-11 cells (CellTiter Aqueous One); format: cell-based; details: for Cell Proliferation activity: 72 h; for IC50: MV4-11, 72 h
Outline: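 Exponentially growing MV-4-11 cells (5×10^4/well) were treated immediately with two-fold dilutions of compound from 30 μM to 0.2 μM, in triplicate, for 72 h at 37° C, 5% CO2. Viability was measured by MTS absorbance at 490 nm after 3–4 h. Proliferation relative to DMSO after blank correction gave IC50.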

hIL-6 mRNA = assay: Inhibition of hIL-6 mRNA transcription in LPS-stimulated U937 cells; format: cell-based; details: Homo sapiens, U-937; PMA-differentiated U937 cells, 1 h pretreatment, 1 ug/mL LPS stimulation, 3 h; read-out: IL-6 activity (Inhibition of hIL-6 mRNA Transcription)
Method: In this example, hIL-6 mRNA in tissue culture cells was quantitated to measure the transcriptional inhibition of hIL-6 when treated with a compound of the invention.
Human leukemic monocyte lymphoma U937 cells (CRL-1593.2) were plated at a density of 3.2×10^4 cells per well in a 96-well plate in 100 μL RPMI-1640 containing 10% FBS and penicillin/streptomycin, and differentiated into macrophages for 3 days in 60 ng/mL PMA ([…]) at 37° C. in 5% CO2 prior to the addition of compound. The cells were pretreated for 1 h with increasing concentrations of test compound in 0.1% DMSO prior to stimulation with 1 ug/mL lipopolysaccharide from Escherichia coli. Triplicate wells were used for each concentration. The cells were incubated at 37° C., 5% CO2 for 3 h before the cells were harvested. At time of harvest, media was removed and cells were rinsed in 200 μL PBS. Cells were harvested using the mRNA Catcher PLUS kit according to manufacturer's instructions. The eluted mRNA was then used in a one-step quantitative real-time PCR reaction using components of the RNA UltraSense™ One-Step Kit (Life Technologies) together with Applied Biosystems TaqMan® primer-probes for hIL-6 and Cyclophilin. Real-time PCR plates were run on a VIa™ 7 real time PCR machine (Applied Biosystems), data was analyzed, normalizing the Ct values for hIL-6 to an internal control, prior to determining the fold expression of each sample, relative to the control.

Structure (SMILES) | IC50 [1] | IC50 (c-myc) | IC50 (hIL-6 mRNA) | IC50 (human AML MV-4-11 cells) | Cell Proliferation activity (human AML MV-4-11 cells)
Cc1noc(C)c1-c1ccc2ncn(Cc3ccccc3)c2n1 [Example Compound 26, 4-(3-benzyl-3H-imidazo[4,5-b]pyridin-5-yl)-3,5-dimethylisoxazole] | 300 to 3000 nM | 3000 to 30000 nM | 300 to 3000 nM | 300 to 3000 nM | –
Cc1noc(C)c1-c1cnc2c(C=O)cn(Cc3ccccc3)c2c1 [Example Compound 35, 1-benzyl-6-(3,5-dimethylisoxazol-4-yl)-1H-pyrrolo[3,2-b]pyridine-3-carbaldehyde] | ≤ 300 nM | 300 to 3000 nM | 300 to 3000 nM | 300 to 3000 nM | –
CC(=O)c1cn(Cc2ccccc2)c2cc(-c3c(C)noc3C)cnc12 [Example Compound 36, 1-(1-benzyl-6-(3,5-dimethylisoxazol-4-yl)-1H-pyrrolo[3,2-b]pyridin-3-yl)ethanone] | ≤ 300 nM | 300 to 3000 nM | 300 to 3000 nM | 300 to 3000 nM | –
Cc1noc(C)c1-c1cc2c(ccn2Cc2ccccc2)nc1OC=O [Example Compound 37, 1-benzyl-6-(3,5-dimethylisoxazol-4-yl)-1H-pyrrolo[3,2-b]pyridin-5-yl formate] | 300 to 3000 nM | 3000 to 30000 nM | 3000 to 30000 nM | – | Not active
Cc1noc(C)c1-c1cnc2c(c1)ncn2Cc1ccc(Cl)cc1 [Example Compound 42, 4-(3-(4-chlorobenzyl)-3H-imidazo[4,5-b]pyridin-6-yl)-3,5-dimethylisoxazole] | 300 to 3000 nM | 3000 to 30000 nM | 3000 to 30000 nM | 3000 to 30000 nM | –
Cc1noc(C)c1-c1cnc2c(c1)ncn2Cc1ccc(F)cc1 [Example Compound 44, 4-(3-(4-fluorobenzyl)-3H-imidazo[4,5-b]pyridin-6-yl)-3,5-dimethylisoxazole] | 300 to 3000 nM | 3000 to 30000 nM | 300 to 3000 nM | 3000 to 30000 nM | –
Cc1noc(C)c1-c1cnc2c(c1)ncn2Cc1ccccn1 [Example Compound 46, 3,5-dimethyl-4-(3-(pyridin-2-ylmethyl)-3H-imidazo[4,5-b]pyridin-6-yl)isoxazole] | 300 to 3000 nM | 3000 to 30000 nM | 3000 to 30000 nM | 3000 to 30000 nM | –
Cc1noc(C)c1-c1ccc2ccn(Cc3ccc(F)cc3)c2n1 [Example Compound 49, 4-(1-(4-fluorobenzyl)-1H-pyrrolo[2,3-b]pyridin-6-yl)-3,5-dimethylisoxazole] | 3000 to 30000 nM | 3000 to 30000 nM | 3000 to 30000 nM | 3000 to 30000 nM | –
Cc1noc(C)c1-c1cc(N)c2ccn(Cc3ccc(F)cc3)c2n1 [Example Compound 52, 6-(3,5-dimethylisoxazol-4-yl)-1-(4-fluorobenzyl)-1H-pyrrolo[2,3-b]pyridin-4-amine] | 300 to 3000 nM | 3000 to 30000 nM | 300 to 3000 nM | 300 to 3000 nM | –
Cc1noc(C)c1-c1cc(N)c2cnn(Cc3ccccc3)c2c1 [Example Compound 54, 1-benzyl-6-(3,5-dimethylisoxazol-4-yl)-1H-indazol-4-amine] | ≤ 300 nM | 300 to 3000 nM | 300 to 3000 nM | 300 to 3000 nM | –
Cc1noc(C)c1-c1cnc2nc(C)n(Cc3ccc(F)cc3)c2c1 [Example Compound 58, 4-(1-(4-fluorobenzyl)-2-methyl-1H-imidazo[4,5-b]pyridin-6-yl)-3,5-dimethylisoxazole] | ≤ 300 nM | 300 to 3000 nM | 300 to 3000 nM | 300 to 3000 nM | –
Cc1noc(C)c1Cn1c(C)nc2ncc(-c3c(C)noc3C)cc21 [Example Compound 60, 4-((6-(3,5-dimethylisoxazol-4-yl)-2-methyl-1H-imidazo[4,5-b]pyridin-1-yl)methyl)-3,5-dimethylisoxazole] | 300 to 3000 nM | 3000 to 30000 nM | 300 to 3000 nM | – | Not active
Cc1noc(C)c1-c1cnc2nc(C)n(Cc3ccc(Cl)cc3Cl)c2c1 [Example Compound 61, 4-(1-(2,4-dichlorobenzyl)-2-methyl-1H-imidazo[4,5-b]pyridin-6-yl)-3,5-dimethylisoxazole] | ≤ 300 nM | 300 to 3000 nM | 300 to 3000 nM | 3000 to 30000 nM | –
COc1ccc(Cn2c(C)nc3ncc(-c4c(C)noc4C)cc32)cc1 [Example Compound 62, 4-(1-(4-methoxybenzyl)-2-methyl-1H-imidazo[4,5-b]pyridin-6-yl)-3,5-dimethylisoxazole] | ≤ 300 nM | 300 to 3000 nM | 300 to 3000 nM | 300 to 3000 nM | –
CCS(=O)(=O)Nc1cc(-c2c(C)noc2C)cc2c1nc(C)n2Cc1ccccc1 [Example Compound 65, N-(1-benzyl-6-(3,5-dimethylisoxazol-4-yl)-2-methyl-1H-benzo[d]imidazol-4-yl)ethanesulfonamide] | ≤ 300 nM | 300 to 3000 nM | 300 to 3000 nM | 300 to 3000 nM | –

Continued, in another order:

IC50 [1] | IC50 (c-myc) | IC50 (hIL-6 mRNA) | IC50 (human AML MV-4-11 cells) | Structure (SMILES) | Cell Proliferation activity (human AML MV-4-11 cells)
≤ 300 nM | 3000 to 30000 nM | 300 to 3000 nM | – | Cc1noc(C)c1-c1cc2c(c(C)nn2Cc2ccc(F)cc2)[n+]([O-])c1 [Example Compound 24, 6-(3,5-dimethylisoxazol-4-yl)-1-(4-fluorobenzyl)-3-methyl-1H-pyrazolo[4,3-b]pyridine-4-oxide] | Not active
≤ 300 nM | 300 to 3000 nM | 300 to 3000 nM | 300 to 3000 nM | Cc1noc(C)c1-c1cc(N)c2ncn(Cc3ccc(F)cc3)c2c1 [Example Compound 27, 6-(3,5-dimethylisoxazol-4-yl)-1-(4-fluorobenzyl)-1H-benzo[d]imidazol-4-amine] | –
≤ 300 nM | 300 to 3000 nM | 300 to 3000 nM | 300 to 3000 nM | CNc1cc(-c2c(C)noc2C)cc2c1ncn2Cc1ccc(F)cc1 [Example Compound 28, 6-(3,5-dimethylisoxazol-4-yl)-1-(4-fluorobenzyl)-N-methyl-1H-benzo[d]imidazol-4-amine] | –
≤ 300 nM | 300 to 3000 nM | 300 to 3000 nM | 300 to 3000 nM | Cc1noc(C)c1-c1cc(N(C)C)c2ncn(Cc3ccc(F)cc3)c2c1 [Example Compound 29, 6-(3,5-dimethylisoxazol-4-yl)-1-(4-fluorobenzyl)-N,N-dimethyl-1H-benzo[d]imidazol-4-amine] | –
≤ 300 nM | 300 to 3000 nM | 300 to 3000 nM | 3000 to 30000 nM | Cc1noc(C)c1-c1cc2c(ncn2Cc2ccccc2)c(N)n1 [Example Compound 33, 1-benzyl-6-(3,5-dimethylisoxazol-4-yl)-1H-imidazo[4,5-c]pyridin-4-amine] | –
≤ 300 nM | 300 to 3000 nM | 300 to 3000 nM | 300 to 3000 nM | Cc1noc(C)c1-c1cnc2c(Br)cn(Cc3ccccc3)c2c1 [Example Compound 34, 4-(1-benzyl-3-bromo-1H-pyrrolo[3,2-b]pyridin-6-yl)-3,5-dimethylisoxazole] | –
≤ 300 nM | 3000 to 30000 nM | 3000 to 30000 nM | – | Cc1noc(C)c1-c1cnc2nc(C)n(Cc3ccc(C(N)=O)cc3)c2c1 [Example Compound 38, 4-((6-(3,5-dimethylisoxazol-4-yl)-2-methyl-1H-imidazo[4,5-b]pyridin-1-yl)methyl)benzamide] | Not active
≤ 300 nM | 300 to 3000 nM | 300 to 3000 nM | 300 to 3000 nM | Cc1noc(C)c1-c1cnc2c([N+](=O)[O-])cn(Cc3ccccc3)c2c1 [Example Compound 39, 4-(1-benzyl-3-nitro-1H-pyrrolo[3,2-b]pyridin-6-yl)-3,5-dimethylisoxazole] | –
≤ 300 nM | 300 to 3000 nM | 300 to 3000 nM | 3000 to 30000 nM | Cc1noc(C)c1-c1cnc2ccn(Cc3ccc(F)cc3)c2c1 [Example Compound 48, 4-(1-(4-fluorobenzyl)-1H-pyrrolo[3,2-b]pyridin-6-yl)-3,5-dimethylisoxazole] | –
≤ 300 nM | 3000 to 30000 nM | 300 to 3000 nM | 3000 to 30000 nM | Cc1noc(C)c1-c1cnc2ccn(Cc3ccc(F)cc3)c2n1 [Example Compound 50, 4-(5-(4-fluorobenzyl)-5H-pyrrolo[2,3-b]pyrazin-3-yl)-3,5-dimethylisoxazole] | –
